Measured values: US20110305673A1, “COMPOSITIONS AND METHODS FOR TISSUE REPAIR” (The University of Vermont and State Agriculture College, priority 2008, published 2011)

How the values were obtained:
[1] = system: cardiac progenitor cells; assay: Signal transduction inhibitor study on CPC number (48 hrs); assay type: cell-based, rat; details: for cell number ratio to control cell number: CPCs in MSC CdM; for cell number ratio to control cell number / effect on number/growth of CPCs in MSC conditioned media: 48 hrs; for effect on number/growth of CPCs in MSC conditioned media: inhibitor 10 μM
Method: Serum-free conditioned media was prepared as described previously (Kiel et al., Cell 2005; 121:1109-1121). cardiac progenitor cells and cardiac fibroblasts were plated at 500 cells/cm^2 and cultured in their growth medium. Three days after plating the medium was removed, the wells were washed twice with PBS, and the cells were then exposed to conditioned media or to fresh serum-free medium (α-MEM). For time course proliferation studies, the conditioned media and serum-free medium were changed every 2 days. […] All inhibitors were from Calbiochem (EMD Chemicals, San Diego, Calif.) and were dissolved in dimethyl sulfoxide (DMSO). Cardiac progenitor cells were cultured in conditioned media with the inhibitors or with the equivalent volume of DMSO as a control for 48 hrs. In the protection study, 3 days after plating, the medium was replaced with either the conditioned media or serum-free medium and the cells were exposed to hypoxia in a specialized incubator (1% oxygen) for 48 hours. The hypoxia incubator was a model that measured both CO2 and O2 (Thermo Electron, Form a Series II, model 3130). Oxygen was maintained at 1% by the injection of nitrogen gas and was monitored continuously. Cell numbers were quantified by the fluorescent labeling of nucleic acids (CyQuant dye; Molecular Probes, Carlsbad, Calif.) and with a microplate fluorescence reader (FLX800; Bio-Tek Instruments Inc., Winooski, Vt.) set to 480 nm excitation and 520 nm emission. Each experiment was repeated a minimum of 3 times.

[2] = system: cardiac progenitor cells; assay: CPC protection study under hypoxia (1% oxygen, 48 hours); assay type: cell-based, rat; details: inhibitor 10 μM
Method: Serum-free conditioned media was prepared as described previously (Kiel et al., Cell 2005; 121:1109-1121). cardiac progenitor cells and cardiac fibroblasts were plated at 500 cells/cm^2 and cultured in their growth medium. Three days after plating the medium was removed, the wells were washed twice with PBS, and the cells were then exposed to conditioned media or to fresh serum-free medium (α-MEM). For time course proliferation studies, the conditioned media and serum-free medium were changed every 2 days. In the signal transduction inhibitor studies the following pharmacological inhibitors, were used (10 micromolar): AG490, an inhibitor of Jak2/STAT3 pathway; Stattic, a specific inhibitor of STAT3 phosphorylation at Tyr^705; LY294002, inhibitor of phosphatidylinositol 3-kinase (PI3K)/Akt pathway; and PD98059, extracellular signal-regulated kinase (ERK) inhibitor. […] The hypoxia incubator was a model that measured both CO2 and O2 (Thermo Electron, Form a Series II, model 3130). Oxygen was maintained at 1% by the injection of nitrogen gas and was monitored continuously. Cell numbers were quantified by the fluorescent labeling of nucleic acids (CyQuant dye; Molecular Probes, Carlsbad, Calif.) and with a microplate fluorescence reader (FLX800; Bio-Tek Instruments Inc., Winooski, Vt.) set to 480 nm excitation and 520 nm emission. […]

[3] = system: CD133dMSCs; assay: Puromycin kill curve; assay type: cell-based, human; details: after 3 days
Method: Based on observations that CD133dMSCs increased their secretion of SDF-1 in culture following exposure to hypoxia and mRNA expression in vivo after injection into stroke penumbra, the role of SDF-1 in mediating the benefits of CD133dMSC CdM was explored using lentiviral shRNA knockdown of SDF-1 with puromycin-selectable vectors. In preliminary studies, kill curves were performed with transduced CD133dMSCs incubated in puromycin-containing culture medium to remove cells that were not transduced by lentivirus. […] Following lentiviral transduction of expanded CD133dMSCs from a single donor with a scrambled shRNA vector, 2 different shRNAs vectors against SDF-1, or a control selectable GFP vector, ELISAs and FACS assays were performed to characterize the cells.

## N#C/C(=C/c1ccc(O)c(O)c1)C(=O)NCc1ccccc1 [AG490]
[1]; 1 μM
  cell number ratio to control cell number: 96.3±0.9%
[1]; 5 μM
  cell number ratio to control cell number: 89.5±0.9%
[1]; 10 μM, 48 hours
  effect on CPC numbers in growth medium: not AG490 significantly diminished
  effect on number of CPCs in conditioned media from fibroblasts: inhibitory effect
  effect on number of CPCs in conditioned media from p75MSCs: inhibitory effect
  effect on number of CPCs in serum-free medium: significantly reduced
[1]; 10 μM
  cell number ratio to control cell number: 43.4±2.4%
[2]
  effect on protective effects of conditioned media during hypoxia: inhibited the protective effects

## O=[N+]([O-])c1ccc2c(c1)S(=O)(=O)C=C2 [Stattic]
[1]
  effect on number/growth of CPCs in MSC conditioned media: completely blocked
[2]
  effect on protective effects of conditioned media during hypoxia: blocked the protective effects

## COc1ccc(C[C@H](N)C(=O)N[C@H]2[C@@H](O)[C@H](n3cnc4c(N(C)C)ncnc43)O[C@@H]2CO)cc1 [puromycin]
[3]
  concentration sufficient to remove all untransduced CD133dMSCs: 2 µg/mL

## COc1cccc(-c2cc(=O)c3ccccc3o2)c1N [PD98059]
[1]
  effect on number/growth of CPCs in MSC conditioned media: did not block
